# Results from US10072055B2, “Anti-inflammatory pharmaceutical products” (Resother Pharma APS, priority 2011, dated 2018).
# “Also recorded” adds a separate entry of the source. Ends that are not written are not given here.
# Columns and labels:
# [1] = Anti-inflammatory properties, test not specified
# HNE = molecular target: T1, HNE (Homo sapiens, UniProt P08246); experiment: In vitro degradation/digest in the presence of HNE; format: in vitro ADME
# T1 sequence (P08246 30-267): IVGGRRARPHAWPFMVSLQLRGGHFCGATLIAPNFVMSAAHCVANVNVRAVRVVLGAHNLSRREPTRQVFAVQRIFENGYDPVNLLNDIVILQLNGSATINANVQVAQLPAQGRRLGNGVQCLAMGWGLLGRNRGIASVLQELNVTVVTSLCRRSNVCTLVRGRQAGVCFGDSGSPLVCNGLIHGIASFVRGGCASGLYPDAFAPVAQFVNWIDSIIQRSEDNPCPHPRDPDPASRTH
# Protocol: FIG. 9 is a logarithmic plot of the degradation over time of three polypeptides of the present disclosure, UGP022 (SEQ ID NO: 5), UGP025 (SEQ ID NO: 7) and UGP026 (SEQ ID NO: 8) in the presence of HNE, a protease implicated in the in vivo cleavage of Annexin 1.
# In an attempt to improve the potency and increase the half-life of the UGP022 peptide of the present disclosure (SEQ ID NO: 5), a series of in vitro PR3 and FINE digests were conducted. […] This cleavage site is not believed to have been identified in the literature.
# Degradation tests of three polypeptides of the present disclosure, UGP022 (SEQ ID NO:5), UGP025 (SEQ ID NO:7) and UGP026 (SEQ ID NO:8) in the presence of PR3, a protease implicated in the in vivo cleavage of Annexin 1, indicated better stability for polypeptides with Leucine substitution at position 24 relative to a polypeptide lacking that feature. Position 24 corresponds to position 25 of Annexin 1 because all tested polypeptides lack the methionine at position 1 of natural Annexin. A 47-residue polypeptide outperformed an otherwise identical 49-residue polypeptide. Similar results were obtained in degradation tests in the presence of FINE.
# FIG. 9 is a logarithmic plot of the degradation over time of three polypeptides of the present disclosure, UGP022 (SEQ ID NO:5), UGP025 (SEQ ID NO:7) and UGP026 (SEQ ID NO:8) in the presence of […], a protease implicated in the in vivo cleavage of Annexin 1. […] Also, a 47-residue polypeptide amidated at its C-terminus outperformed an otherwise identical 49-residue polypeptide amidated at its C-terminus.
# [2] = test system: PMN interaction to an activated HUVEC monolayer; experiment: Flow chamber assay: PMN interaction with activated HUVEC monolayer (capture, rolling, adhesion); format: cell-based, human; conditions: for inhibition of PMN/neutrophil-endothelium interactions in flow chamber: concentration not given
# From the text: FIGS. 2A-2C are a series of charts reporting data from flow chamber analysis to determine the inhibitory capability of five polypeptides of the present disclosure (Pep57 (SEQ ID NO:12); Pep59 (SEQ ID NO:13), Pep60 (SEQ ID NO:15), Pep83 (SEQ ID NO:16) and Pep84 (SEQ ID NO:14)) and Ac-ANAX1(2-26)-OH to reduce PMN interaction to an activated HUVEC monolayer.
# FIGS. 4A-4C are a series of bar charts reporting percent inhibition provided by three polypeptides (UGP022 (SEQ ID NO:5); UGP025 (SEQ ID NO:7) and UGP026 (SEQ ID NO:8)) of the present disclosure, at different concentrations, on three different parameters (capture—FIG. 4A; rolling—FIG. 4B; and adhesion—FIG. 4C).
# FIGS. 2A-2C are a series of charts reporting data from flow chamber analysis to determine the inhibitory capability of five polypeptides (Pep57 (SEQ ID NO: 12); Pep59 (SEQ ID NO: 13), Pep60 (SEQ ID NO: 15), Pep83 (SEQ ID NO: 16) and Pep84 (SEQ ID NO: 14)) of the present disclosure and Ac-ANAX1(2-26)-OH to reduce PMN interaction to an activated HUVEC monolayer. PMNs (5×10^6) were incubated with 10 μM of the various peptides for 10 min at 37° C. The PMNs were then flowed for 8 min at 1 dyne/cm^2, prior to quantifying the degree of PMN interaction with the HUVECs, both as PMN capture (FIG. 2A), adhesion (FIG. 2B) and rolling (FIG. 2C). […] Data are mean±SEM of 3 independent experiments (with distinct PMN and HUVEC preparations); *=P<0.05 vs. CT group, data analyzed using one way ANOVA.
# FIGS. 4A-4C make a direct comparison of the activities of UGP022 (SEQ ID NO:5), UGP025 (SEQ ID NO: 7) and UGP026 (SEQ ID NO: 8) in the flow chamber assay, presenting the degree of inhibition on the three parameters under analysis (capture (FIG. 4A); rolling (FIG. 4B) and adhesion (FIG. 4C)).
# FPR2 = molecular target: T2, FPR2 (Homo sapiens, UniProt P25090); experiment: Binding affinity to FPR2
# T2 sequence (P25090 1-351): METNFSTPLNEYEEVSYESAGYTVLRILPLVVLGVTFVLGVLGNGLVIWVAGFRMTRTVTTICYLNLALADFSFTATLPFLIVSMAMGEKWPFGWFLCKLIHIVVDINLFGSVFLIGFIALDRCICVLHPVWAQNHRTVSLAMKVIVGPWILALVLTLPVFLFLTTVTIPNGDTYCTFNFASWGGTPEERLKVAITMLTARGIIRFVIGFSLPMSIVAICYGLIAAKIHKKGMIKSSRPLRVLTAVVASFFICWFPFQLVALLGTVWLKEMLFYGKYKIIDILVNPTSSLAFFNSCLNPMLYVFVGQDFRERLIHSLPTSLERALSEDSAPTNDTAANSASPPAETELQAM
# [3] = test system: phagocytosis of apoptotic cells; experiment: Phagocytosis of apoptotic PMN (efferocytosis); format: cell-based
# From the text: FIG. 5 is a series of bar charts reporting the ability of three polypeptides (UGP022 (SEQ ID NO:5); UGP025 (SEQ ID NO:7) and UGP026 (SEQ ID NO:8))_of the present disclosure, at different concentrations, to mimic an Annexin A1 property of inducing phagocytosis of apoptotic cells.
# In recent years important pro-resolving properties have been ascribed to Annexin A1, namely the induction of phagocytosis of apoptotic cells by macrophages and cells alike. This effect is also reliant on FPR2 and shared with other important pro-resolving mediators including the lipoxins and the resolvins.
# FIG. 5 is a series of bar charts reporting the ability of three polypeptides (UGP022 (SEQ ID NO:5); UGP025 (SEQ ID NO:7) and UGP026 (SEQ ID NO:8)) of the present disclosure, at different concentrations, to mimic an Annexin A1 property of inducing phagocytosis of apoptotic cells.
Substance,anti-inflammatory properties in vitro and in vivo [1],stability / resistance to HNE degradation (HNE),activity in flow chamber assay at 100 fM ([2]; 100 fM),inhibition of PMN/neutrophil-endothelium interactions in flow chamber [2],activity in flow chamber assay at the higher concentrations tested ([2]; higher concentrations),affinity to FPR2 over FPR1 (FPR2),binding affinity to FPR2 (FPR2),induction of phagocytosis of apoptotic PMN [3],"in vitro results, amidated vs free acid precursor [1]",cleavage sites by HNE (HNE; in vitro digest),lowest concentration with significant anti-inflammatory effect on human PMN ([2]; human PMN) [pM]
"AMVSEFLKQAWFIENEEQEYVQTLKSSKGGPGSAVSPYPTFNPSSDV-NH2 [UGP025, Leu25-ANXA1(2-48)-NH2]",seeming more potent,more resistant to PR3 and FINE than the UGP022 peptide,slightly more active at the 100 fM concentration when compared to the UGP022 peptide,"able to reduce the number of human PMNs interacting with an activated endothelium, acting specifically through the FPR2 receptor",less active at the higher concentrations tested,retain a higher affinity to FPR2 over FPR1,seems to have a higher affinity to FPR2 than does UGP026,promoted phagocytosis of the apoptotic PMN,,,
"AMVSEFLKQAWFIENEEQEYVQTLKSSKGGPGSAVSPYPTFNPSSDVAA-NH2 [UGP026, Leu25-ANXA1(2-50)-NH2]",possess anti-inflammatory properties both in vitro and in vivo,more resistant to PR3 and FINE than the UGP022 peptide,,"able to reduce the number of human PMNs interacting with an activated endothelium, acting specifically through the FPR2 receptor",,retain a higher affinity to FPR2 over FPR1,,promoted phagocytosis of the apoptotic PMN,,,
"AMVSEFLKQAWFIENEEQEYVQTVKSSKGGPGSAVSPYPTFNPSSDVAA-NH2 [UGP022, ANXA1(2-50)-NH2]",,,,"more potent than either the UGP021 peptide; also recorded: able to reduce the number of human PMNs interacting with an activated endothelium, acting specifically through the FPR2 receptor",,,binding affinity to the FPR2 in the nanomolar range; also recorded: showing the highest affinity,displaying the higher ability to induce this process,shows better in vitro results than with a free acid precursor,Ala 10 (Ala11 relative to Annexin 1) and Val 21 (Val22 relative to Annexin 1); also recorded: Val 35 (Val36 relative to Annexin 1) was only cleaved by FINE; also recorded: Val 24 (Val25 relative to Annexin 1),1
